Assay results taken from patent US9114149B2, “[CU(thp)4]n[X]-n compounds for the treatment of a broad range of human solid tumors, including refractory tumors” (Universita Degli Studi Di Padova, priority 2011, dated 2015).

Tests used:
AGS = assay: MTT cytotoxicity, AGS (stomach); assay type: cell-based, human; conditions: MTT test, 72 hrs
Excerpt: (§1) The in vitro antitumor activity of CP had been deeply evaluated in several human cancer cell lines by in vitro cytotoxicity assays. CP cytotoxicity has been detected in a large panel of human cell lines derived from a wide variety of solid tumors, including refractory tumors. In Table 1, the cytotoxicity parameters IC50 (that is the median growth inhibitory concentrations calculated from dose-survival curves via MTT test) are tabulated.
(§2) Cell lines representative of lung (H157, U1810, U1285, Calu-1), pancreas (MIA PaCa-2, BxPC-3, AsPC-1, Capan-1), liver (Huh-7, Hep 3B, SK-Hep-1), oesophagus (OE33, OE21), oesophagus/gastric cardia (OE19), stomach (BGC-823, AGS), colon (HCT-116, T84, COLO 205), breast (MDA-MB-231, SK-BR-3), cervix (CaSki, C-33 A) ovarian (A2780, SK-OV-3, IGROV1), prostate (LnCaP, PC-3) cancers along with melanoma (MEWO, G361, C-32), neuroblastoma (SH-SY5Y, SK-N-AS, IMR-32) and osteosarcoma (U-2 OS, MG-63) have been treated with increasing concentration of CP for 72 hrs.

CaSki = assay: MTT cytotoxicity, CaSki (cervix); assay type: cell-based, human; conditions: MTT test, 72 hrs
Excerpt: as §1, §2

Hep 3B = assay: MTT cytotoxicity, Hep 3B (liver); assay type: cell-based, human; conditions: MTT test, 72 hrs
Excerpt: as §1, §2

[1] = system: human lung (MRC-5) fibroblasts; assay: Cytotoxicity towards human non-tumor cells, MRC-5; assay type: cell-based; conditions: MRC-5 human lung fibroblasts (non-tumor); MTT test, 72 hrs
IGROV1 = assay: MTT cytotoxicity, IGROV1 (ovary); assay type: cell-based, human; conditions: MTT test, 72 hrs
Excerpt: as §1, §2

COLO 205 = assay: MTT cytotoxicity, COLO 205 (colon); assay type: cell-based, human; conditions: MTT test, 72 hrs
Excerpt: as §1, §2

U-2 OS = assay: MTT cytotoxicity, U-2 OS (bone); assay type: cell-based, human; conditions: MTT test, 72 hrs
Excerpt: as §1, §2

[2] = system: human foreskin (HFFF2) fibroblasts; assay: Cytotoxicity towards human non-tumor cells, HFFF2; assay type: cell-based; conditions: MTT test, 72 hrs
OE19 = assay: MTT cytotoxicity, OE19 (oesophagus/gastric cardia); assay type: cell-based, human; conditions: MTT test, 72 hrs
Excerpt: as §1, §2

[3] = system: human colon adenocarcinoma cells resistant (HCT-116 OXP) to OXP
[4] = system: human colon adenocarcinoma cells sensitive (HCT-116); assay: Cross resistance MTT test, HCT-116 (OXP sensitive); assay type: cell-based; conditions: 72 h, probit analysis
A2780 = assay: MTT cytotoxicity, A2780 (ovary); assay type: cell-based, human; conditions: MTT test, 72 hrs
Excerpt: as §1, §2

MDA-MB-231 = assay: MTT cytotoxicity, MDA-MB-231 (breast); assay type: cell-based, human; conditions: MTT test, 72 hrs
Excerpt: as §1, §2

Calu-1 = assay: MTT cytotoxicity, Calu-1 (lung); assay type: cell-based, human; conditions: MTT test, 72 hrs
Excerpt: as §1, §2

MEWO = assay: MTT cytotoxicity, MEWO (skin); assay type: cell-based, human; conditions: MTT test, 72 hrs
Excerpt: as §1, §2

HCT-116 = assay: MTT cytotoxicity, HCT-116 (colon); assay type: cell-based, human; conditions: MTT test, 72 hrs
Excerpt: as §1, §2

Huh-7 = assay: MTT cytotoxicity, Huh-7 (liver); assay type: cell-based, human; conditions: MTT test, 72 hrs
Excerpt: as §1, §2

MIA PaCa-2 = assay: MTT cytotoxicity, MIA PaCa-2 (pancreas); assay type: cell-based, human; conditions: MTT test, 72 hrs
Excerpt: as §1, §2

SK-OV-3 = assay: MTT cytotoxicity, SK-OV-3 (ovary); assay type: cell-based, human; conditions: MTT test, 72 hrs
Excerpt: as §1, §2

H157 = assay: MTT cytotoxicity, H157 (lung); assay type: cell-based, human; conditions: MTT test, 72 hrs
Excerpt: as §1, §2

Capan-1 = assay: MTT cytotoxicity, Capan-1 (pancreas); assay type: cell-based, human; conditions: MTT test, 72 hrs
Excerpt: as §1, §2

SK-BR-3 = assay: MTT cytotoxicity, SK-BR-3 (breast); assay type: cell-based, human; conditions: MTT test, 72 hrs
Excerpt: as §1, §2

AsPC-1 = assay: MTT cytotoxicity, AsPC-1 (pancreas); assay type: cell-based, human; conditions: MTT test, 72 hrs
Excerpt: as §1, §2

T84 = assay: MTT cytotoxicity, T84 (colon); assay type: cell-based, human; conditions: MTT test, 72 hrs
Excerpt: as §1, §2

SK-Hep-1 = assay: MTT cytotoxicity, SK-Hep-1 (liver); assay type: cell-based, human; conditions: MTT test, 72 hrs
Excerpt: as §1, §2

PC-3 = assay: MTT cytotoxicity, PC-3 (prostate); assay type: cell-based, human; conditions: MTT test, 72 hrs
Excerpt: as §1, §2

C-32 = assay: MTT cytotoxicity, C-32 (skin); assay type: cell-based, human; conditions: MTT test, 72 hrs
Excerpt: as §1, §2

BxPC-3 = assay: MTT cytotoxicity, BxPC-3 (pancreas); assay type: cell-based, human; conditions: MTT test, 72 hrs
Excerpt: as §1, §2

G361 = assay: MTT cytotoxicity, G361 (skin); assay type: cell-based, human; conditions: MTT test, 72 hrs
Excerpt: as §1, §2

[5] = system: CDDP sensitive and resistant human cancer cell lines; conditions: also CDDP resistant cell lines; cited from earlier work

With `O=C1[O][Pt]2([NH][C@@H]3CCCC[C@H]3[NH]2)[O]C1=O` [OXP, oxaliplatin] as the compound, how does the IC50 (AGS) read?
The IC50 was 5.32 ± 1.63 µM.

And the IC50 (CaSki)?
The IC50 was 26.1 ± 3.01 µM.

What about the IC50 (Hep 3B) of the same compound?
Its IC50 is 4.32 ± 1.33 µM.

And the IC50 [1]?
The IC50 was 23.1 ± 1.25 µM.

What about the IC50 (IGROV1) of the same compound?
The IC50 was 2.56 ± 2.14 µM.

And the IC50 (COLO 205)?
The IC50 was 21.1 ± 2.66 µM.

What about the IC50 (U-2 OS) of the same compound?
The IC50 was 0.72 ± 0.24 µM.

And the IC50 [2]?
Its IC50 is 25.5 ± 1.65 µM.

What about the IC50 (OE19) of the same compound?
The IC50 was 8.76 ± 1.51 µM.

What about the IC50 ([3]; HCT-116 OXP (OXP resistant), MTT test, 72 h, probit analysis) of the same compound?
Its IC50 is 23.3 ± 1 µM.

What about the “R.F. (Resistant factor)” value ([3]; IC50 resistant/parent line: HCT-116 OXP / HCT-116) of the same compound?
Its value is 19.4.

And the IC50 [4]?
Its IC50 is 1.2 ± 0.1 µM.

And the IC50 (A2780)?
Its IC50 is 0.55 ± 0.22 µM.

What about the IC50 (MDA-MB-231) of the same compound?
Its IC50 is 4.35 ± 1.07 µM.

What about the IC50 (Calu-1) of the same compound?
The IC50 was 4.23 ± 1.53 µM.

What about the IC50 (MEWO) of the same compound?
Its IC50 is 6.43 ± 1.54 µM.

What about the IC50 (HCT-116) of the same compound?
Its IC50 is 0.76 ± 0.58 µM.

What about the IC50 (Huh-7) of the same compound?
Its IC50 is 1.12 ± 1.05 µM.

What about the IC50 (MIA PaCa-2) of the same compound?
The IC50 was 16.8 ± 1.89 µM.

And the IC50 (SK-OV-3)?
The IC50 was 1.43 ± 1.03 µM.

And the IC50 (H157)?
Its IC50 is 25.3 ± 0.52 µM.

And the IC50 (Capan-1)?
The IC50 was 3.17 ± 0.97 µM.

And the IC50 (SK-BR-3)?
The IC50 was 8.98 ± 2.64 µM.

And the IC50 (AsPC-1)?
Its IC50 is 23.2 ± 2.64 µM.

What about the IC50 (T84) of the same compound?
Its IC50 is 0.33 ± 0.09 µM.

And the IC50 (SK-Hep-1)?
The IC50 was 17.8 ± 2.63 µM.

What about the IC50 (PC-3) of the same compound?
Its IC50 is 5.23 ± 1.62 µM.

What about the IC50 (C-32) of the same compound?
Its IC50 is 1.12 ± 0.42 µM.

What about the IC50 (BxPC-3) of the same compound?
Its IC50 is 4.15 ± 1.06 µM.

And the IC50 (G361)?
The IC50 was 1.14 ± 0.31 µM.

For `Cc1cc(C)n(C(C(=O)[O][Cu]([PH](CO)(CO)CO)[PH](CO)(CO)CO)n2nc(C)cc2C)n1` [[HC(CO2)(pz^Me2)2]Cu[P(CH2OH)3]2], which “antitumor activity in vitro” value [5] is on record?
The value was “significant antitumor activity in vitro”.
